Patent publication US20060241038A1, “Therapeutic agent for Abeta related disorders” (Eisai Co., Ltd., priority 2005, published 2006)
Entries after “also recorded” stand apart in the source; their conditions may differ.

Tests used:
[1] = system: Aβ fragments in rat fetal brain-derived nerve cell culture medium; assay: MALDI-TOF/MS analysis of Aβ in rat fetal brain-derived nerve cell culture medium; type: cell-based; details: 3 days culture with various concentrations of test compound; normalized to internal standard Aβ12-28
Method: In the same manner as shown in Example 3 above, brain cortex-derived nerve cells were prepared from Wistar rats at 18 days of embryonic age. The nerve cell suspension was diluted with a medium and seeded onto 10 cm polystyrene culture dishes pre-coated with poly-D-lysine (BIOCOAT® cell environments Poly-D-lysine cell culture dish, Becton Dickinson Labware) in a volume of 15 ml/dish so as to give an initial cell density of 3.5×10^5 cells/cm^2. After the seeded cells were cultured for 1 day in an incubator with 5% CO2, 95% air at 37° C., the medium was entirely replaced by fresh Neurobasal/B27/2ME, followed by culturing for an additional 3 days.
(§1) At 4 days after initiation of culturing, the test compounds synthesized in the preceding Examples, i.e., Compound A, Compound B (CAS#501907-79-5) or Compound C (CAS#670250-40-5) were added as follows. The medium was entirely removed and replaced by Neurobasal/B27/2ME free from 2-ME (i.e., Neurobasal/B27) in a volume of 11 ml/dish. The test compounds (Compounds A, B and C) in DMSO were diluted with Neurobasal/B27 to 100-fold of their final concentration and added in a volume of 110 μl/dish, followed by sufficient mixing. The final DMSO concentration was kept at 1% or below. The control group received DMSO alone.
(§2) After addition of the test compounds, the cells were cultured for 3 days and the whole volume of the medium was collected from each dish. The resulting medium was provided as a MALDI-TOF/MS sample.
Each sampled culture supernatant was collected in a 15 mL centrifuge tube and supplemented with 400 μL of a 25-fold concentrated solution of protease inhibitor cocktail Complete (Roche Diagnostics GmbH), followed by centrifugation at 4° C. at 3,000 rotations/minute for 5 minutes to sediment cell fragments. The resulting supernatant was transferred to another 15 mL centrifuge tube and supplemented with synthetic Aβ12-28 (Bachem) as an internal standard at a final concentration of 2 nM, followed by addition of 5 μg anti-Aβ monoclonal antibody (clone name: 4G8, Signet Laboratories, Inc). Subsequently, 5 μL of Protein G plus Protein A Agarose (Oncogene Research Products) was added after being blocked at 4° C. with 2% BSA and washed with TBS buffer. Further, 3-[(3-cholamidopropyl)dimethylammonio]-1-propanesulfonate (CHAPS; SIGMA) was added to each tube at a final concentration of 1%, followed by mixing at 4° C. for 4 to 8 hours.
The Protein G plus Protein A Agarose holding the immunoprecipitated Aβ fragments adsorbed thereto was collected from each tube by centrifugation at 4° C. at 3,000 rotations/minute for 5 minutes and transferred to a 1.5 mL microtube. The Protein G plus Protein A Agarose was washed twice with 500 μL of 140 mM NaCl, 0.1% N-Octyl Glucoside (NOG; Loche Diagnostics GmbH), 10 mM Tris-HCl, pH 8, once with 500 μL of Tris-HCl, 10 mM, pH 8, and then once with 500 μL of ion exchanged water. After washing with ion exchanged water, as much fluid as possible was removed from each tube and Aβs were eluted with 5 μL of 0.2% NOG, 2.4% trifluoroacetic acid (TFA; PIERCE) and 48.7% acetonitrile (HPLC grade, Wako Pure Chemical Industries, Ltd.). Independently of this, α-cyano-4-hydroxy-cinnamic acid (CHCA; BRUKER DALTONICS) was dissolved in 0.2% NOG, 0.1% TFA and 33% acetonitrile at a saturating concentration and supplemented with human insulin (Peptide Institute, Inc.) and angiotensin III (Peptide Institute, Inc.) as mass standards at fmal concentrations of 167 nM and 56 nM, respectively, for use as a matrix solution. Each Aβ eluate (0.5 μL) and the matrix solution (0.5 μL) were spotted at the same position on a sample plate for mass spectrometry and air-dried at room temperature, followed by analysis with a mass spectrometer Voyager DE (Applied Biosystems). All mass data detected were corrected for the mass of human insulin and angiotensin III (5807.6 and 931.1, respectively). […]

[2] = system: Aβ40; assay: ELISA quantification of Aβ40 in rat fetal brain-derived nerve cell culture medium; type: cell-based; details: 3 days culture; effect stated as concentration-dependent (FIGS. 7-1 to 7-3)
Method: as §1, §2
(§3) A part of each medium collected in Example 7(3) aforementioned was used as an ELISA sample. Each sample was not diluted for Aβ42 measurement, while it was diluted 5-fold for Aβ40 measurement with a diluent attached to an ELISA kit before being subjected to ELISA.
(§4) Aβ ELISA was performed using a Human Amyloid beta (1-42) Assay Kit (#17711, IBL Co., Ltd.) and a Human Amyloid beta (1-40) Assay Kit (#17713, IBL Co., Ltd.) in accordance with the kit's recommended protocol (the procedures described in the attached document), provided that a calibration curve for each Aβ was prepared using beta-amyloid peptide 1-42 (rat) or beta-amyloid peptide 1-40 (rat) (Calbiochem. #171596[Aβ4 2] or #171593[Aβ4 0]). The results were expressed as percentages (% of Control) relative to the Aβ concentration in the medium from the control group (untreated group, Control).

[3] = system: Aβ42; assay: ELISA quantification of Aβ42 in rat fetal brain-derived nerve cell culture medium; type: cell-based; details: 3 days culture; effect stated as concentration-dependent (FIGS. 7-1 to 7-3)
Method: as §1, §2, §3, §4

[4] = system: Aβ42 production; details: reported in 2001 (refs 13, 14); cited from earlier work
[5] = Circular dichroism (CD) analysis of each Aβ (secondary structure); type: physicochemical; details: each Aβ alone, 37° C., until 5 days
Method: The solution was then dispensed in 10 to 30 μL aliquots into 500 μL polypropylene microtubes and stored at −80° C. until use.
The Aβ solutions in HFIP were evaporated using a centrifugal evaporator (Tomy Seiko Co., Ltd., CC-180 and ST-10) to remove HFIP and then dissolved in a solution of 10 mM HEPES containing 0.9% NaCl. Each of the resulting Aβ solution was incubated at 37° C. and measured for their CD at different time points.
The Aβ-containing solutions were injected into washed quartz cells with an optical path length of 1 or 2 mm and measured for their CD. Until measurement, the quartz cells were allowed to stand at 37° C., 100% humidity.

[6] = biological target: T1, Aβ1-42 (Homo sapiens, UniProt P05067); assay: CD measurement on a 1:3 mixture of Aβ1-42 and each Aβ (β-sheet structure formation in Aβ1-42); type: biochemical; details: 5 μM Aβ1-42 mixed with 15 μM of the Aβ (1:3)
T1 construct: purchased Peptide Institute, Inc. 4349-v
Method: The solution was then dispensed in 10 to 30 μL aliquots into 500 μL polypropylene microtubes and stored at −80° C. until use. The Aβ solutions in HFIP were evaporated using a centrifugal evaporator (Tomy Seiko Co., Ltd., CC-180 and ST-10) to remove HFIP and then dissolved in a solution of 10 mM HEPES containing 0.9% NaCl. Each of the resulting Aβ solution was incubated at 37° C. and measured for their CD at different time points. […] The Aβ-containing solutions were injected into washed quartz cells with an optical path length of 1 or 2 mm and measured for their CD. Until measurement, the quartz cells were allowed to stand at 37° C., 100% humidity.

[7] = biological target: T1, Aβ1-42; assay: ThT fluorescence of 1:3 mixtures of Aβ1-42 and each Aβ; type: biochemical; details: Aβ1-42 mixed with the Aβ at a ratio of 1:3
Method: (§5) After addition of ThT (SIGMA) at a final concentration of 10 μM, each sample was transferred to a 96-well black plate (Corning) and stirred for 10 seconds, followed by measuring the fluorescence intensity for each sample. Using a fluorospectrometer (LJL Biosystems), the fluorescence intensity at a wavelength of 490 nm was measured with an excitation light of 450 nm wavelength.

[8] = Thioflavin T (ThT) analysis for aggregation ability of each Aβ; type: physicochemical; details: each Aβ alone, in 10 mM HEPES containing 0.9% NaCl, 37° C.; 10 μM ThT
Method: as §5

| Molecule | Aβ1-37 or Aβ11-37 production (MALDI-TOF/MS) [1] | Aβ1-38 or Aβ11-38 production (MALDI-TOF/MS) [1] | Aβ1-40 or Aβ11-40 production (MALDI-TOF/MS) [1] | Aβ1-42 or Aβ11-42 (peak intensity, MALDI-TOF/MS) [1] | Aβ40 production (ELISA, % of Control) [2] | Aβ42 production (ELISA, % of Control) [3] | fluorescence intensity of ThT (content of β-sheet structure) with incubation time [8] | other results |
| --- | --- | --- | --- | --- | --- | --- | --- | --- |
| COc1cc(/C=C/C(=O)NCc2cccc(-c3ccccc3)c2)ccc1-n1cnc(C)c1 [Compound A, (E)-N-biphenyl-3-ylmethyl-3-[3-methoxy-4-(4-methylimidazol-1-yl)phenyl]acrylamide] | enhanced in a manner dependent on the concentration of Compound A | enhanced in a manner dependent on the concentration of Compound A | inhibited in a manner dependent on the concentration of Compound A | no detectable change | inhibited | inhibited | – | – |
| N#Cc1ccc(NC(=O)NC(=N)Nc2ccc(Cl)cc2)cc1 [Compound B, N-{[(4-chlorophenyl)amino]iminomethyl}-N′-(4-cyanophenyl)urea] | enhanced in a manner dependent on the concentration of Compound B | enhanced in a manner dependent on the concentration of Compound B | inhibited in a manner dependent on the concentration of Compound B | no detectable change | inhibited | inhibited | – | – |
| CNC(=O)n1ccc2cc(Oc3ccnc(NC(=O)N[C@H](CO)C(=O)N4CCCCC4)c3)ccc21 [Compound C, 5-{2-{3-[(1R)-1-hydroxymethyl-2-oxo-2-piperidin-1-ylethyl]ureido}pyridin-4-yloxy}-1H-indole-1-carboxylic acid methylamide] | enhanced in a manner dependent on the concentration of Compound C | – | tended to be inhibited | no detectable change | inhibited | inhibited | – | Aβ1-39 or Aβ11-39 production (MALDI-TOF/MS) [1]: enhanced in a manner dependent on the concentration of Compound C |
| CC(C)Cc1ccc(C(C)C(=O)O)cc1 (stereo not shown) [ibuprofen] | – | – | – | – | – | – | – | effect on Aβ42 production [4]: selectively inhibit Aβ42 production |
| Aβ1-40: human-type Aβ1-40 (Peptide Institute, Inc., Prod. # 4307-v); amyloid β peptide | – | – | – | – | – | – | no increase in the fluorescence intensity | likelihood of forming a β-sheet structure (CD), compared with Aβ1-42 [5]: less likely to form a β-sheet structure than Aβ1-42; effect on β-sheet structure formation in Aβ1-42 (CD) [6]: weaker than that of Aβ1-37 or Aβ1-38; time after mixing with Aβ1-42 at which a CD spectrum indicative of β-sheet structure was detected ([6]; 37° C., Aβ1-42+buffer showed β-sheet from 1 day): 2 days; increase in ThT fluorescence intensity (β-sheet structure formation) of Aβ1-42 compared to Aβ1-42 alone [7]: the formation of β-sheet structure was inhibited; also recorded: the increase in the fluorescence intensity was inhibited |
| Aβ1-42: human-type Aβ1-42 (Peptide Institute, Inc., Prod. # 4349-v); amyloid β peptide | – | – | – | – | – | – | increased with increasing incubation time | – |
